Consider ten substances from US5574023A, “Intramolecularly crosslinked (1→3)-β-D-glucans” (Seikagaku Kogyo Kabushiki Kaisha (Seikagaku Corporation), priority 1991, dated 1996).

Series [1] is described as follows: Single helix conformation content by high-resolution 13C-NMR of hydrated solid sample. In kind it is physicochemical. The following applies: for Single helix conformation % retention after one month: aqueous solution or suspension stored aseptically at 4° C. for 1 month, versus initial value; for Single helix conformation content in hydrated solid sample: immediately after synthesis, 13C-NMR. How it is done: Each sample was deprived of water by lyophilization and then maintained in saturated water vapor, and the hydrated solid sample obtained was subjected to high-resolution ^13 C-NMR spectrometry. The single helix conformation content in the (1→3)-β-D-glucan in the sample was calculated by comparing the chemical shift peak heights for each carbon atom with the peak heights of the chemical shifts shown in Table 1 for other higher-order structure carbon atoms.
The single helix conformation contents thus obtained from the chemical shifts of C-2, C-3 and C-5 and the respective peak heights are shown in Table 2.
Furthermore, aqueous solutions or suspensions were stored in aseptic condition at 4° C. for 1 month and then tested for single helix conformation content in the same manner. The data obtained were compared with the initial values and the rates of retention of the respective single helix conformations contained were calculated. The uncrosslinked, single helix conformation schizophyllan, when subjected to solid-phase ^13 C-NMR spectrometry immediately after formation of said conformation, gave a single helix conformation content of 60% but, after one-month storage, the content of said structure was only 6% (10% retention). This is due to advanced transformation from the single helix conformation to other higher-order structures.

Series [2] concerns Horseshoe crab lysate factor G. Put plainly: Factor G activating ability (pNA release from Boc-Leu-Gly-Arg-pNA). Format: biochemical. The following applies: for % Retention of factor G activating ability after one month: aqueous solution or suspension stored one month at 4° C., versus initial value. As to the method: For each sample to be tested, a reaction mixture (200 μl) containing the sample, water and the ingredients mentioned below was prepared. […]
This reaction mixture was incubated at 37° C. for 30 minutes and, then, p-nitroaniline (pNA) liberated was quantitated. Thus, to the sample after incubation were added 0.5 ml each of 0.04% sodium nitrite (solution in 0.48M hydrochloric acid), 0.3% ammonium sulfamate and 0.07% N-1-naphthylethylenediamine dihydrichloride in that order for causing a change in color tone due to diazo coupling, and the absorbance at 545 nm (A545) was determined.
This measurement was performed for an aqueous solution or suspension of each substance immediately after synthesis thereof. The same measurement was also performed after one month storage of the sample at 4° C., the minimum concentration (C, g/ml) at which the absorbance at 545 nm amounted to 0.1 was determined, and the factor G activating ability was expressed in terms of -log C (g/ml) value. By comparing this value with the initial value, the rate of retention of factor G activating ability was calculated.

Series [3] concerns Sarcoma 180 cells. Put plainly: Tumor inhibition rate, Sarcoma 180 transplanted subcutaneously in mice. In kind it is in vivo, CLJ-ICR female mice. The following applies: intraperitoneal, 10 times (days 1-5 and 7-11), tumor weight on day 13 versus untreated control; for % Tumor inhibition, after one month: sample administered after one month storage at 4° C.; for % Tumor inhibition, initial: sample administered immediately after preparation. How it is done:
Sarcoma 180 cells (5×10^6 cells) were transplanted subcutaneously into the groin of each of 6-week-old CLJ-ICR female mice weighing about 25 g. The intramolecularly crosslinked, single helix conformation (1→3)-β-D-glucans of the invention as obtained in Examples 1-10 and the uncrosslinked, single helix conformation schizophyllan of Comparative Example were respectively administered to the mice at 24 hours after transplantation (day 1) and thereafter once daily on days 1-5 and 7-11 (10 times in total). Thus, each sample was comminuted in a mortar, suspended or dissolved in physiological saline for injection, sterilized in an autoclave at 121° C. for 20 minutes, and then intraperitoneally administered. In a control group, no glucan was given to mice.
On day 13, tumor nodules were excised and weighed, and their weights were compared with the tumor weight in the untreated control group for calculating tumor inhibition rates.
In the above test, sample solutions or suspensions were administered immediately after preparation on one hand and, on the other, the solutions or suspensions were administered after one month storage at 4° C.

Consider “2,3,4-Trihydroxyadipodialdehyde-crosslinked hydrazinocurdlan [Example 3]”, for which, in series [1], the “Single helix conformation % retention after one month” value (shortened to “Single helix conformation % retention”) is 80% and the “Single helix conformation content in hydrated solid sample” value (“Single helix conformation content” below) was 70%. Further, in series [2], the “% Retention of factor G activating ability after one month” value stood at 20%. In series [3], the “% Tumor inhibition, after one month” value worked out at 92.1% and the “% Tumor inhibition, initial” value came out at 100%.
Take “2,3,4-Trihydroxyadipodihydrazide-crosslinked aldehyde schizophyllan [Example 6]”: in series [1], the “Single helix conformation % retention” value was 90% and the “Single helix conformation content” value was 70%. Moreover, the “% Retention of factor G activating ability after one month” value in series [2] stood at 30%. In addition, in series [3], the “% Tumor inhibition, after one month” value was found to be 96.1% and the “% Tumor inhibition, initial” value is reported as 100%.
On the same counts, the results for “Dodecamethylenediamine-crosslinked aldehyde schizophyllan [Example 4]” are 100%, 75%, 100%, 98.4% and 100%.
Take “Glutardialdehyde-crosslinked hydrazino yeast glucan [Example 9]”: in series [1], the “Single helix conformation % retention” value was determined as 53% and the “Single helix conformation content” value stood at 23%. The “% Retention of factor G activating ability after one month” value in series [2] stood at 20%. In series [3], the “% Tumor inhibition, after one month” value is reported as 73.0% and the “% Tumor inhibition, initial” value came out at 90.0%.
With “Glutardialdehyde-crosslinked hydrazinocurdlan (no receptor added) [Example 1]”, in series [1], the “Single helix conformation % retention” value was found to be 60% and the “Single helix conformation content” value came out at 70%. For the same substance, in series [2], the “% Retention of factor G activating ability after one month” value amounted to 10%. For the same substance, the “Initial factor G activating ability, -log C (minimum concentration at which A545 amounted to 0.1)” value in series [2] (immediately after synthesis, 37° C., 30 minutes) is reported as 11 -log C (g/ml). Moreover, in series [3], the “% Tumor inhibition, after one month” value was 70.0% and the “% Tumor inhibition, initial” value was 98.0%.
In the case of “Glutardialdehyde-crosslinked hydrazinocurdlan [Example 2]”, in series [1], the “Single helix conformation % retention” value turned out to be 70% and the “Single helix conformation content” value came out at 65%. Further, the “% Retention of factor G activating ability after one month” value in series [2] was found to be 20%. In series [3], the “% Tumor inhibition, after one month” value stood at 91.1% and the “% Tumor inhibition, initial” value came to 98.2%.
Consider “Glutardialdehyde-crosslinked hydrazinolentinan [Example 10]”, for which, in series [1], the “Single helix conformation % retention” value is 52% and the “Single helix conformation content” value is recorded as 35%. Moreover, the “% Retention of factor G activating ability after one month” value in series [2] is recorded as 20%. In addition, in series [3], the “% Tumor inhibition, after one month” value is listed as 80.0% and the “% Tumor inhibition, initial” value is listed as 96.0%.
The like results for “Glutardialdehyde-crosslinked hydrazinoschizophyllan [Example 7]” were, in that order, 80%, 70%, 25%, 95.0% and 100%.
The like results for “Hexamethylenedihydrazine-crosslinked carboxymethylated curdlan [Example 8]” were, in that order, 70%, 60%, 10%, 75.3% and 98.2%.
The like results for “Pimelic acid-crosslinked hydrazinoschizophyllan [Example 5]” were, in that order, 60%, 55%, 10%, 65.6% and 95.3%.
